Measurements taken from patent publication US20160272622A1, “TETRAZOLINONE COMPOUND AND USE THEREOF” (SUMITOMO CHEMICAL COMPANY, LIMITED, priority 2013, published 2016).

Legend:
Format in all cases: in vivo
[1] = test system: barley net blotch fungus (Pyrenophora teres); assay: Barley net blotch control test, foliar spray before inoculation; conditions: 500 ppm sprayed on barley (NISHINOHOSHI); inoculated 2 days after spraying
Experimental: (§1) The control effect was evaluated by visually observing the area of lesion on each of test plants at the time of investigation, and comparing the area of lesion spots on a plant treated with the present compound with that on an untreated plant.
Each of plastic pots was filled with soil and barley (cultivar: NISHINOHOSHI) was sowed and grown in a greenhouse for 7 days. Then, each water dilution prepared by adjusting so as to contain a predetermined concentration (500 ppm) of any one compound of the present compounds 1, and 3 to 16 was sprayed over stems and leaves of the barley so that it sufficiently adhered to the surface of the leaves of the barley. After spraying, the plant was air-dried. After 2 days, an aqueous suspension containing spores of barley net blotch fungus (Pyrenophora teres) was sprayed to inoculate the spores. After completion of the inoculation, the plant was placed for 3 days in a greenhouse at 23° C. in the daytime and 20° C. at night under high humidity condition and cultivated in a greenhouse for 7 days, and then the area of lesion was investigated. As a result, the area of lesion on the plant treated with the present compound(s) 1, or 3 to 16 was 30% or less of that on an untreated plant.

[2] = test system: wheat leaf blotch fungus (Septoria tritici); assay: Wheat leaf blotch control test, spray after inoculation; conditions: 50 ppm sprayed on wheat (APOGEE) 3 days after inoculation
[3] = test system: target spot fungus (Corynespora cassiicola); assay: Cucumber target spot control test, foliar spray before inoculation; conditions: 200 ppm sprayed on cucumber (SAGAMI HANJIRO); inoculated one day after spraying; 7 days
Experimental: as §1
Each of plastic pots was filled with soil and cucumber (cultivar: SAGAMI HANJIRO) was sowed and grown in a greenhouse for 19 days. Then, each water dilution prepared by adjusting so as to contain a predetermined concentration (200 ppm) of the present compound 6 was sprayed over stems and leaves of the cucumber so that it sufficiently adhered to the surface of the leaves of the cucumber. After spraying, the plant was air-dried. After one day, an aqueous suspension containing spores of target spot fungus […]. After the inoculation, the plant was cultivated in a greenhouse at 24° C. in the daytime and 20° C. at night for 7 days, and then the area of lesion was investigated. As a result, the area of lesion on the plant treated with the present compound 6 was 30% or less of that on an untreated plant.

[4] = test system: wheat rust fungus (Puccinia recondita); assay: Wheat rust control test, foliar spray before inoculation; conditions: 200 ppm sprayed on wheat (SHIROGANE); inoculated 5 days after spraying
Experimental: as §1
Each of plastic pots was filled with soil and wheat (cultivar: SHIROGANE) was sowed and grown in a greenhouse for 9 days. Then, each water dilution prepared by adjusting so as to contain a predetermined concentration (200 ppm) of any one compound of the present compounds 12, and 14 to 16 was sprayed over stems and leaves of the wheat so that it sufficiently adhered to the surface of the leaves of the wheat. After spraying, the plant was air-dried and cultivated at 20° C. for 5 days under illumination, and then inoculated by sprinkling with spores of wheat rust fungus (Puccinia recondita). After the inoculation, the plant was placed at 23° C. for one day under dark and high humidity condition, and cultivated under illumination at 20° C. for 8 days, and then the area of lesion was investigated.

[5] = test system: cotton aphid (Aphis gossypii); assay: Cotton aphid control test on sprayed cucumber; conditions: 500 ppm, 20 mL sprayed on cucumber; adults and larvae; after 6 days
Experimental: Thirty (30) heads of cotton aphid (Aphis gossypii) (including adults and larvae) were released on the leaves of cucumber (cultivar: SAGAMI HANJIRO FUSHINARI) grown in a polyethylene cup until the first true leaf was developed. Next day, 20 mL of the test chemical solution was sprayed.
Control value (%)={1−(Cb×Tai)/(Cai×Tb)}×100
wherein symbols in the equation represent the followings: […]
Cb: Number of insects before spraying chemical solution in untreated area;
Cai: Number of surviving insects in untreated area;
Tb: Number of insects before spraying chemical solution in treated area; and
Tai: Number of surviving insects in treated area.

Cn1nnn(-c2cnn(C(C)(C)C)c2COc2ccn(-c3ccc(Cl)cc3)n2)c1=O [present compound 1, 1-(1-tert-butyl-5-{[1-(4-chlorophenyl)-1H-pyrazol-3-yl]oxymethyl}-1H-pyrazol-4-yl)-4-methyl-1,4-dihydrotetrazol-5-one]
area of lesion on treated plant relative to that on an untreated plant [1]: ≤ 30%

Cn1nnn(-c2cnn(C(C)(C)C)c2COc2nc(-c3ccc(Cl)cc3)cs2)c1=O [present compound 3]
area of lesion on treated plant relative to that on an untreated plant [2]: ≤ 30%

Cn1nnn(-c2cccnc2COc2ccn(-c3ccc(Cl)cc3)n2)c1=O [present compound 6, 1-(2-{[1-(4-chlorophenyl)-1H-pyrazol-3-yl]oxymethyl}-pyridin-3-yl)-4-methyl-1,4-dihydrotetrazol-5-one]
area of lesion on treated plant relative to that on an untreated plant [3]: ≤ 30%

COc1ccccc1-n1ccc(OCc2c(-n3nnn(C)c3=O)cnn2C(C)(C)C)n1 [present compound 12, 1-(1-tert-butyl-5-{[1-(2-methoxyphenyl)-1H-pyrazol-3-yl]oxymethyl}-1H-pyrazol-4-yl)-4-methyl-1,4-dihydrotetrazol-5-one]
area of lesion on treated plant relative to that on an untreated plant [4]: ≤ 30%
Control value [5]: ≥ 90%
